According to the supplement of paper PMC10307832:

Columns and labels:
Assay in all cases: relative viability (nuclei count vs DMSO), 5 days (fraction); higher = more cells survive
[1] = compound: CC(C)(C)c1cc(NC(=O)Nc2ccc(-c3cn4c(n3)sc3cc(OCCN5CCOCC5)ccc34)cc2)no1 [Quizartinib] + COc1cc2c(Oc3ccc(NC(=O)C4(C(=O)Nc5ccc(F)cc5)CC4)cc3F)ccnc2cc1OCCCN1CCOCC1 [Foretinib] (partner 0.25 µM)
Procedure, shortened: (§1)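 Dosing by pin tool came one day after lung cancer cell lines were seeded in 1536-well plates, using either one drug or a fixed anchor-drug dose plus five library-drug doses (not always all listed) in √10 steps. After 5 days, nuclei were counted on 4× images. Relative viability is treated-well nuclei count divided by vehicle-well nuclei count, and values are medians of duplicate plates.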

[2] = compound: CC(C)(C)c1cc(NC(=O)Nc2ccc(-c3cn4c(n3)sc3cc(OCCN5CCOCC5)ccc34)cc2)no1 [Quizartinib] + C[C@@H](Oc1cc(-c2cnn(C3CCNCC3)c2)cnc1N)c1c(Cl)ccc(F)c1Cl [Crizotinib] (partner 1 µM)
Procedure, shortened: as §1

[3] = compound: CC(C)(C)c1cc(NC(=O)Nc2ccc(-c3cn4c(n3)sc3cc(OCCN5CCOCC5)ccc34)cc2)no1 [Quizartinib] + C[C@]1(O)C[C@@H](c2nc(-c3ccc4ccc(-c5ccccc5)nc4c3)c3c(N)nccn32)C1 [Linsitinib] (partner 1 µM)
Procedure, shortened: as §1

[4] = compound: COCC[n+]1c2c(n(Cc3cnccn3)c1C)C(=O)c1ccccc1C2=O [YM155] + CS(=O)(=O)N1CCN(Cc2cc3nc(-c4cccc5[nH]ncc45)nc(N4CCOCC4)c3s2)CC1 [Pictilisib] (partner 1 µM)
Procedure, shortened: as §1

Cell Line	relative viability ([1]; first compound 0.003162 µM)	relative viability ([1]; first compound 0.01 µM)	relative viability ([1]; first compound 0.1 µM)	relative viability ([2]; first compound 0.001 µM)	relative viability ([2]; first compound 0.003162 µM)	relative viability ([2]; first compound 0.01 µM)	relative viability ([2]; first compound 0.03162 µM)	relative viability ([2]; first compound 0.1 µM)	relative viability ([3]; first compound 0.001 µM)	relative viability ([3]; first compound 0.003162 µM)	relative viability ([3]; first compound 0.01 µM)	relative viability ([3]; first compound 0.03162 µM)	relative viability ([3]; first compound 0.1 µM)	relative viability ([4]; first compound 0.002 µM)	relative viability ([4]; first compound 0.006325 µM)	relative viability ([4]; first compound 0.02 µM)	relative viability ([4]; first compound 0.06325 µM)	relative viability ([1]; first compound 0.001 µM)	relative viability ([1]; first compound 0.03162 µM)
HCC-15	0.978	0.979	0.952	0.798	0.79	0.817	0.802	0.81	0.799	0.823	0.874	0.828	0.814	0.612	0.687	0.723	0.614	–	–
NCI-H1666	0.925	1.03	1.02	0.917	0.829	1.07	0.777	0.974	0.771	0.753	0.868	0.631	0.865	0.455	–	0.404	0.484	0.749	0.783
EMC-BAC-2	1.02	1.14	1.01	0.753	0.713	0.873	0.758	0.738	0.712	0.748	0.815	0.789	0.838	0.545	0.533	0.556	0.484	0.938	–
NCI-H460	0.961	1.03	0.976	0.708	0.842	1.02	–	0.416	0.583	0.572	0.782	–	0.708	0.355	0.351	0.413	0.451	0.916	0.652
NCI-H1299	1.05	1.14	1.12	0.92	0.949	1.01	0.928	0.956	0.952	0.95	0.987	1.02	1.01	0.653	0.803	0.845	0.516	1.06	1.05
NCI-H2405	1.04	1.03	1.07	0.791	0.89	0.946	0.803	0.925	0.85	0.883	0.927	0.909	1.09	0.407	0.316	0.395	0.312	0.96	1.05
SK-LU-1	0.76	0.943	0.985	0.797	0.785	1.23	0.781	0.914	0.941	1.07	1.31	1.11	0.906	0.606	0.496	0.483	0.545	0.779	0.83
NCI-H727	0.877	0.838	0.871	0.74	–	0.939	0.772	0.662	0.164	–	0.387	0.309	0.174	0.397	0.533	0.446	0.375	0.71	0.801
NCI-H1975	0.89	0.869	1.14	1.02	0.929	0.922	0.986	1.09	0.964	0.85	0.956	1	1.17	0.273	0.268	0.256	0.224	0.936	0.843
BEN	0.772	0.648	0.672	0.819	0.769	0.766	0.722	0.73	0.739	0.779	0.903	0.815	0.712	0.53	0.644	0.627	0.578	0.672	0.424
NCI-H2228	0.954	1.01	1.02	0.439	0.414	0.317	0.418	0.429	0.736	0.699	0.808	0.534	0.624	0.338	0.278	0.384	0.388	0.927	0.715
NCI-H2023	0.752	0.869	0.742	0.648	0.57	0.799	0.246	0.543	0.556	0.585	0.564	0.454	0.574	0.237	0.23	0.25	0.112	0.788	–
NCI-H1993	0.809	0.793	0.792	0.904	0.951	0.916	0.952	0.948	0.739	0.716	0.817	0.757	0.833	0.697	0.733	0.798	0.789	0.806	0.81
PC-3 [JPC-3]	1.03	1.11	1.07	0.978	0.961	1.01	0.955	0.955	0.853	0.951	0.931	0.988	0.933	0.651	0.792	0.801	0.759	0.947	1.04
NCI-H650	1.04	1.16	1.18	0.684	0.525	0.772	0.628	0.749	0.807	0.787	0.798	0.694	1.15	0.88	0.843	0.953	0.683	1.02	0.978
NCI-H596	0.816	0.949	0.754	0.971	1	1.09	0.932	0.761	1.06	0.985	1.06	1.12	1.03	–	0.387	0.378	0.431	0.925	0.903
Calu-6	0.779	0.972	0.899	0.719	0.714	0.814	0.621	0.752	0.975	0.884	0.944	0.959	0.883	0.879	0.605	0.169	0.13	0.74	0.88
